Assay results taken from PubChem BioAssay (NCI).
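A five-concentration, 48-hour dose response in 96-well plates underlies each endpoint, interpolated linearly between surrounding concentrations. TGI marks complete inhibition of growth.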

tested on: NCI-H522 lung; experiment: DTP human tumour cell line panel, 48 h

| Compound | TGI [µM] |
| --- | --- |
| O=[N+]([O-])c1ccc2c(c1)/C(=N/N=C1c3ccccc3Cc3ccccc31)c1cc([N+](=O)[O-])cc([N+](=O)[O-])c1-2 | 3.25 |
| Cc1ccc([N+](=O)[O-])cc1NC1=NCCO1 | > 100 |
| CC(C)=CCc1c2c(c3occ(-c4ccc(O)cc4)c(=O)c3c1O)CC(C(C)(C)O)O2 (stereo unspecified) | 34 |
| CCOC(=O)C(SCCO)C(C(=O)OCC)n1cnc2c(=O)[nH]c(NC(C)=O)nc21 (stereo unspecified) | > 100 |
| COc1cc(C2c3cc4c(cc3OC(N3CCOCC3)C2C)OCO4)ccc1O (stereo unspecified) | 58.4 |
| Cc1ccccc1C(=O)N1CCc2c([nH]c3ccccc23)C1 | 46.1 |
| CC[C@@H]1CC[C@@H]2[C@H](CC[C@]3(C)[C@@H](OC(C)=O)CC[C@@H]23)[C@H]1COC(C)=O | 56.1 |
| NS(=O)(=O)c1ccc2c(c1)OCCOCCOCCOCCO2 | > 100 |
| COC(=O)c1cc(=O)nc2sc3cccc(C)c3n12 | 48.3 |

tested on: UACC-257 melanoma; experiment: DTP human tumour cell line panel, 48 h

| Compound | TGI [µM] |
| --- | --- |
| O=C1CSC(c2ccc(Cl)cc2)N1c1ccc(Oc2ccc(Cl)cc2)c(Cl)c1 (stereo unspecified) | 33.2 |
| Cc1ccc(C(=O)O)cc1S(=O)(=O)Nn1cnc2ccc(S(=O)(=O)Nc3ccccc3C(=O)O)cc2c1=O | > 100 |
| CCCCCCc1cc2cc(-c3csc(CC#N)n3)c(=O)oc2cc1O | > 100 |
| C=C1C(=O)O[C@@H]2C(=O)[C@@H](C)CCC/C(C)=C/CC[C@@]3(C)O[C@@H]3C[C@@H]12 | > 100 |
| COc1cc(Br)cc2cc(-c3cn4ccsc4n3)c(=O)oc12 | > 100 |
| C[C@]12CCC(O)CC1=CC[C@@H]1[C@@H]2CC[C@]2(C)C(=O)[C@H](n3ccnc3)C[C@@H]12 (stereo partly specified) | > 100 |
| O=c1[nH]c(Nc2cccc(CC(F)(F)F)c2)nc2nc[nH]c12 | > 100 |
| COc1ccc(-c2cc(O)c3nc4ccccc4n3c2)cc1 | > 100 |
| O=C1CC(NC(=O)C(F)(F)F)c2c(Br)sc(N3CCNCC3)c21 (stereo unspecified) | > 100 |
| COc1cc2nc3n(c(=O)c2cc1OC)-c1ccc([N+](=O)[O-])cc1C3=O | > 100 |
| CC(=O)OC1CC(OC2C(O)CC(OC3C(O)CC(OC4CCC5(C)C(CCC6C5CC(O)C5(C)C(C7=CC(=O)OC7)CCC65O)C4)OC3C)OC2C)OC(C)C1OC1OC(CO)C(O)C(O)C1O (stereo unspecified) | 0.767 |
| Nc1nc(SCCc2ccccc2)c2[nH]cnc2n1 | 67.5 |
| Cc1ccc(-c2n[nH]c(=O)n2N2C(=O)c3ccccc3C2=O)cc1 | > 100 |
| COc1cc2c(c(OC)c1OC)C(=O)[C@@H]1[C@H]2N1C(N)=O | > 100 |
| COC(=O)C1SC(SC)=NC12c1ccccc1Nc1ccccc12 (stereo unspecified) | 84.6 |
| CCOC(=O)C1(C/C=C/CBr)Cc2ccccc2C1=O (stereo unspecified) | 22.6 |
| CN1CCc2cc(N)cc3c2C1Cc1ccc(O)c(O)c1-3 (stereo unspecified) | 52.9 |
| O=C1CCCSC(=O)N1Cc1ccccc1 | > 100 |
| COC(=O)c1c(C)cccc1C1CN=NC12Cc1ccc(C)cc1C2=O (stereo unspecified) | > 100 |

| Compound | TGI [µM] |
| --- | --- |
| N#Cc1c(-c2ccccc2)/c(=C\Nc2cccc(C(F)(F)F)c2)c(=O)n2c1nc1ccccc12 | > 100 |
| S=C1Nc2ccccc2SC1c1ccccc1 (stereo unspecified) | > 100 |
| COC(=O)c1ccccc1CC1Cc2ccc3c(c2C1=O)CCCC3 (stereo unspecified) | > 100 |
| CN1CCN(C2=NCCO2)CC1 | > 100 |
| c1ccc(N=c2sc3ccccc3nc2Nc2ccccc2)cc1 | > 100 |
| O=C1/C(=C/c2ccccc2)N=C2Sc3c(nc[nH]c3=O)N12 | > 100 |
| C=CC1(C)CCC2C(=CCC3C2(C)CC(O)C(O)C3(C)COC2OC(C(=O)O)C(O)C(O)C2O)C1 (stereo unspecified) (tested in a mixture with another compound) | > 100 |
| N#Cc1c(N2CCCC2)ncn(-c2ccccc2)c1=O | > 100 |
| N#CC1(C#N)N[C@@H](c2ccsc2)[C@H]2C(=O)N(c3ccccc3)C(=O)[C@H]21 | > 100 |
| O=[N+]([O-])c1ccc2c(c1)/C(=N/N=C1c3ccccc3Cc3ccccc31)c1cc([N+](=O)[O-])cc([N+](=O)[O-])c1-2 | 4.38 |
| Cc1ccc([N+](=O)[O-])cc1NC1=NCCO1 | > 100 |
| CC(C)=CCc1c2c(c3occ(-c4ccc(O)cc4)c(=O)c3c1O)CC(C(C)(C)O)O2 (stereo unspecified) | 29.1 |
| CCOC(=O)C(SCCO)C(C(=O)OCC)n1cnc2c(=O)[nH]c(NC(C)=O)nc21 (stereo unspecified) | > 100 |
| COc1cc(C2c3cc4c(cc3OC(N3CCOCC3)C2C)OCO4)ccc1O (stereo unspecified) | > 100 |
| Cc1ccccc1C(=O)N1CCc2c([nH]c3ccccc23)C1 | 58.2 |
| CC[C@@H]1CC[C@@H]2[C@H](CC[C@]3(C)[C@@H](OC(C)=O)CC[C@@H]23)[C@H]1COC(C)=O | 65.6 |
| NS(=O)(=O)c1ccc2c(c1)OCCOCCOCCOCCO2 | > 100 |
| COC(=O)c1cc(=O)nc2sc3cccc(C)c3n12 | > 100 |

tested on: PC-3 prostate; experiment: DTP human tumour cell line panel, 48 h

| Compound | TGI [µM] |
| --- | --- |
| O=C1CSC(c2ccc(Cl)cc2)N1c1ccc(Oc2ccc(Cl)cc2)c(Cl)c1 (stereo unspecified) | 31.3 |
| Cc1ccc(C(=O)O)cc1S(=O)(=O)Nn1cnc2ccc(S(=O)(=O)Nc3ccccc3C(=O)O)cc2c1=O | > 100 |
| CCCCCCc1cc2cc(-c3csc(CC#N)n3)c(=O)oc2cc1O | > 100 |
| C=C1C(=O)O[C@@H]2C(=O)[C@@H](C)CCC/C(C)=C/CC[C@@]3(C)O[C@@H]3C[C@@H]12 | > 100 |
| COc1cc(Br)cc2cc(-c3cn4ccsc4n3)c(=O)oc12 | > 100 |
